Experiments:
DENV3 NS5 MTase [1] = target: T1, DENV3 NS5 MTase (dengue virus type 3, UniProt V9TQY8); assay: fluorescence polarization displacement of F-GTP; assay type: binding
T1 sequence (V9TQY8 2491-2753): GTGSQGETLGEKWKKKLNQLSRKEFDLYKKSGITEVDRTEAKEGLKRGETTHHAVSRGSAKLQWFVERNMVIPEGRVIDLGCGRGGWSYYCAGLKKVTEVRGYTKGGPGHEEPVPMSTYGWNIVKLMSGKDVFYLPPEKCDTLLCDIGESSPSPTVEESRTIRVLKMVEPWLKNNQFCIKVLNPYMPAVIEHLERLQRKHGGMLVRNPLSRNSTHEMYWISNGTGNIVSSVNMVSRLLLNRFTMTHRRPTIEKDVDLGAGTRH

DENV3 NS5 MTase [2] = target: T1, DENV3 NS5 MTase; assay: fluorescence polarization displacement of F-GTP; assay type: binding; remark: listed apart in the source

O=c1c(O)c(-c2ccc(O)cc2)oc2c(O)c(O)cc(O)c12 [HC, herbacetin]
Ki (DENV3 NS5 MTase [1]): ~0.43 µM | IC50 (DENV3 NS5 MTase [2]): 0.77 ± 0.01 µM
